Reference: ChEMBL document CHEMBL3526110, “Preclinical evaluation of the metabolism and disposition of RRx-001, a novel investigative anticancer agent” (Drug Metab Dispos, 2012)

Experiments:
[1] = Ratio of drug level in human blood to human plasma at 20 uM after 30 mins; type: ADME; settings: whole blood
[2] = test system: Blood; experiment: Drug metabolism in rat whole blood assessed as [(S)-2-amino-5-(((R)-1-((carboxymethyl)amino)-3-((2-(3-(hydroxyimino)azetidin-1-yl)-2-oxoethyl)thio)-1-oxopropan-2-yl)amino)-5-oxopentanoic acid] formation at 20 uM by LC-MS/MS method; type: ADME, tissue-based
[3] = test system: Blood; experiment: Drug metabolism in rat whole blood assessed as [(S)-2-amino-5-(((R)-1-((carboxymethyl)amino)-3-((2-(3,3-dinitroazetidin-1-yl)-2-oxoethyl)thio)-1-oxopropan-2-yl)amino)-5-oxopentanoic acid] formation at 20 uM by LC-MS/MS method; type: ADME, tissue-based
[4] = test system: Blood; experiment: Drug metabolism in human whole blood assessed as [(S)-2-amino-5-(((R)-1-((carboxymethyl)amino)-1-oxo-3-((2-oxo-2-(3-oxoazetidin-1-yl)ethyl)thio)propan-2-yl)amino)-5-oxopentanoic acid] formation at 20 uM by LC-MS/MS method; type: ADME, tissue-based
[5] = test system: Blood; experiment: Drug metabolism in rat whole blood assessed as [(R)-2-(2-amino-3-((2-(3,3-dinitroazetidin-1-yl)-2-oxoethyl)thio)propanamido)acetic acid] formation at 20 uM by LC-MS/MS method; type: ADME, tissue-based
[6] = test system: Blood; experiment: Drug level in Wistar Hanover rat blood at 10 mg/kg, iv administered as single dose after 24 hrs; type: ADME, organism-based; design: dose 10 mg/kg, route intravenous; settings: in vivo
[7] = test system: Blood; experiment: Retention time in human whole blood at 20 uM by LC-MS/MS method; type: ADME, tissue-based
[8] = test system: Blood; experiment: AUC (0 to t) in Wistar Hanover rat blood at 10 mg/kg, iv administered as single dose; type: ADME, organism-based; design: dose 10 mg/kg, route intravenous; settings: in vivo
[9] = Binding affinity to monkey hemoglobin assessed as protein bound compound level at 1 uM; type: ADME, Macaca mulatta; settings: rhesus monkey, read-out: PB (converted)
[10] = Binding affinity to rat hemoglobin assessed as protein bound compound level at 1 uM; type: ADME; settings: read-out: PB (converted)
[11] = test system: Blood; experiment: Drug metabolism in human whole blood assessed as [(R)-2-(2-amino-3-((2-(3,3-dinitroazetidin-1-yl)-2-oxoethyl)thio)propanamido)acetic acid] formation at 20 uM by LC-MS/MS method; type: ADME, tissue-based
[12] = Drug excretion in Wistar Hanover rat feces at 10 mg/kg, iv administered as single dose measured on day 1; type: ADME, organism-based; design: dose 10 mg/kg, route intravenous; settings: faeces, read-out: Drug excretion
[13] = test system: Blood; experiment: Retention time in human whole blood in presence of 0.1% formic acid in acetonitrile at 20 uM by LC-MS/MS method; type: ADME, tissue-based
[14] = Ratio of drug level in rat blood to rat plasma at 20 uM after 30 mins; type: ADME, cell-free; settings: whole blood
[15] = Binding affinity to human hemoglobin assessed as protein bound compound level at 1 uM; type: ADME; settings: read-out: PB (converted)
[16] = Ratio of drug level in human blood to human plasma at 1 uM after 30 mins; type: ADME; settings: whole blood
[17] = test system: Plasma; experiment: AUC (0 to t) in Wistar Hanover rat plasma at 10 mg/kg, iv administered as single dose; type: ADME, organism-based; design: dose 10 mg/kg, route intravenous; settings: in vivo
[18] = test system: Blood; experiment: Drug level in Wistar Hanover rat blood at 10 mg/kg, iv administered as single dose after 168 hrs; type: ADME, organism-based; design: dose 10 mg/kg, route intravenous; settings: in vivo
[19] = test system: Stomach; experiment: Drug level in Wistar Hanover rat stomach at 10 mg/kg, iv administered as single dose after 24 hrs; type: ADME, organism-based; design: dose 10 mg/kg, route intravenous; settings: in vivo
[20] = Binding affinity to rat hemoglobin assessed as protein bound compound level at 20 uM; type: ADME; settings: read-out: PB (converted)
[21] = Ratio of drug level in dog blood to dog plasma at 20 uM after 30 mins; type: ADME, Canis lupus familiaris; settings: whole blood
[22] = test system: Blood; experiment: Retention time in human whole blood in presence of 0.1% formic acid in water at 20 uM by LC-MS/MS method; type: ADME, tissue-based
[23] = test system: Blood; experiment: Drug metabolism in human whole blood assessed as [(S)-2-amino-5-(((R)-1-((carboxymethyl)amino)-3-((2-(3,3-dinitroazetidin-1-yl)-2-oxoethyl)thio)-1-oxopropan-2-yl)amino)-5-oxopentanoic acid] formation at 20 uM by LC-MS/MS method; type: ADME, tissue-based
[24] = test system: Blood; experiment: Drug metabolism in rat whole blood assessed as (R)-2-amino-3-((2-(3,3-dinitroazetidin-1-yl)-2-oxoethyl)thio)propanoic acid] formation at 20 uM by LC-MS/MS method; type: ADME, tissue-based
[25] = Ratio of drug level in blood to plasma in Wistar Hanover rat at 10 mg/kg, iv administered as single dose after 0.083 hrs; type: ADME, organism-based; design: dose 10 mg/kg, route intravenous; settings: whole blood and plasma
[26] = Drug level in Wistar Hanover rat bile at 10 mg/kg, iv administered as single dose after 24 hrs; type: ADME, organism-based; design: dose 10 mg/kg, route intravenous; settings: in vivo
[27] = Stability in pH 7.0 buffer; type: physicochemical
[28] = Binding affinity to human hemoglobin assessed as protein bound compound level at 20 uM; type: ADME; settings: read-out: PB (converted)
[29] = Ratio of drug level in monkey blood to monkey plasma at 1 uM after 30 mins; type: ADME, Macaca mulatta; settings: rhesus monkey, whole blood
[30] = test system: Blood; experiment: Retention time in rat whole blood in presence of 0.1% formic acid in acetonitrile at 20 uM by LC-MS/MS method; type: ADME, tissue-based
[31] = Ratio of drug level in dog blood to dog plasma at 1 uM after 30 mins; type: ADME, Canis lupus familiaris; settings: whole blood
[32] = Ratio of drug level in rat blood to rat plasma at 1 uM after 30 mins; type: ADME, cell-free; settings: whole blood
[33] = test system: Blood; experiment: Drug metabolism in rat whole blood assessed as [(S)-2-amino-5-(((R)-1-((carboxymethyl)amino)-3-((2-(3-nitroazetidin-1-yl)-2-oxoethyl)thio)-1-oxopropan-2-yl)amino)-5-oxopentanoic acid] formation at 20 uM by LC-MS/MS method; type: ADME, tissue-based
[34] = test system: Blood; experiment: Drug level in Wistar Hanover rat blood at 10 mg/kg, iv administered as single dose after 168 hrs relative to total radioactivity; type: ADME, organism-based; design: dose 10 mg/kg, route intravenous; settings: in vivo
[35] = Stability in water; type: physicochemical; settings: buffer
[36] = Drug excretion in Wistar Hanover rat urine at 10 mg/kg, iv administered as single dose after 0 to 8 hrs; type: ADME, organism-based; design: dose 10 mg/kg, route intravenous; settings: read-out: Drug excretion
[37] = test system: Blood; experiment: Retention time in rat whole blood at 20 uM by LC-MS/MS method; type: ADME, tissue-based
[38] = Half life in Wistar Hanover rat blood at 10 mg/kg, iv administered as single dose; type: ADME, organism-based; design: dose 10 mg/kg, route intravenous; settings: whole blood
[39] = test system: Blood; experiment: Drug metabolism in human whole blood assessed as [(R)-2-amino-3-((2-(3-nitroazetidin-1-yl)-2-oxoethyl)thio)propanoic acid] formation at 20 uM by LC-MS/MS method; type: ADME, tissue-based
[40] = Drug excretion in Wistar Hanover rat feces at 10 mg/kg, iv administered as single dose measured on day 7; type: ADME, organism-based; design: dose 10 mg/kg, route intravenous; settings: faeces, read-out: Drug excretion
[41] = Drug excretion in Wistar Hanover rat urine at 10 mg/kg, iv administered as single dose after 168 hrs; type: ADME, organism-based; design: dose 10 mg/kg, route intravenous; settings: read-out: Drug excretion
[42] = Binding affinity to dog hemoglobin assessed as protein bound compound level at 1 uM; type: ADME, Canis lupus familiaris; settings: read-out: PB (converted)
[43] = test system: Plasma; experiment: AUC (0 to infinity) in Wistar Hanover rat plasma at 10 mg/kg, iv administered as single dose; type: ADME, organism-based; design: time infinity, dose 10 mg/kg, route intravenous; settings: in vivo
[44] = test system: Nucleic Acid; experiment: Ratio of drug level in blood to plasma in Wistar Hanover rat at 10 mg/kg, iv administered as single dose after 168 hrs; type: ADME, organism-based; design: dose 10 mg/kg, route intravenous; settings: in vivo
[45] = test system: Blood; experiment: Drug metabolism in human whole blood assessed as [(S)-2-amino-5-(((R)-1-((carboxymethyl)amino)-3-((2-(3-nitroazetidin-1-yl)-2-oxoethyl)thio)-1-oxopropan-2-yl)amino)-5-oxopentanoic acid] formation at 20 uM by LC-MS/MS method; type: ADME, tissue-based
[46] = Binding affinity to monkey hemoglobin assessed as protein bound compound level at 20 uM; type: ADME, Macaca mulatta; settings: rhesus monkey, read-out: PB (converted)
[47] = Drug excretion in Wistar Hanover rat feces at 10 mg/kg, iv administered as single dose measured on day 2; type: ADME, organism-based; design: dose 10 mg/kg, route intravenous; settings: faeces, read-out: Drug excretion
[48] = test system: Blood; experiment: Drug metabolism in rat whole blood assessed as [(R)-2-amino-3-((2-(3-nitroazetidin-1-yl)-2-oxoethyl)thio)propanoic acid] formation at 20 uM by LC-MS/MS method; type: ADME, tissue-based
[49] = Volume of distribution in Wistar Hanover rat blood at 10 mg/kg, iv administered as single dose; type: ADME, organism-based; design: dose 10 mg/kg, route intravenous; settings: whole blood
[50] = test system: Blood; experiment: Retention time in rat whole blood in presence of 0.1% formic acid in water at 20 uM by LC-MS/MS method; type: ADME, tissue-based
[51] = test system: Blood; experiment: Drug metabolism in rat whole blood assessed as [(S)-2-amino-5-(((R)-1-((carboxymethyl)amino)-1-oxo-3-((2-oxo-2-(3-oxoazetidin-1-yl)ethyl)thio)propan-2-yl)amino)-5-oxopentanoic acid] formation at 20 uM by LC-MS/MS method; type: ADME, tissue-based
[52] = Volume of distribution in Wistar Hanover rat plasma at 10 mg/kg, iv administered as single dose; type: ADME, organism-based; design: dose 10 mg/kg, route intravenous
[53] = test system: Blood; experiment: Drug metabolism in human whole blood assessed as (R)-2-amino-3-((2-(3,3-dinitroazetidin-1-yl)-2-oxoethyl)thio)propanoic acid] formation at 20 uM by LC-MS/MS method; type: ADME, tissue-based
[54] = Ratio of drug level in monkey blood to monkey plasma at 20 uM after 30 mins; type: ADME, Macaca mulatta; settings: rhesus monkey, whole blood
[55] = Half life in Wistar Hanover rat plasma at 10 mg/kg, iv administered as single dose; type: ADME, organism-based; design: dose 10 mg/kg, route intravenous
[56] = test system: Blood; experiment: Drug metabolism in human whole blood assessed as [(S)-2-amino-5-(((R)-1-((carboxymethyl)amino)-3-((2-(3-(hydroxyimino)azetidin-1-yl)-2-oxoethyl)thio)-1-oxopropan-2-yl)amino)-5-oxopentanoic acid] formation at 20 uM by LC-MS/MS method; type: ADME, tissue-based

## O=C(CBr)N1CC([N+](=O)[O-])([N+](=O)[O-])C1 [NIBROZETONE]
[1]
  blood plasma ratio at 0.5 h, 20 µM: 0.99
[2]
  Drug metabolism: metabolite_detected
[3]
  Drug metabolism: metabolite_detected
[4]
  Drug metabolism: metabolite_detected
[5]
  Drug metabolism: metabolite_detected
[6]
  Drug uptake: 76500 ngequiv/g
[7]
  Retention_time: 15.4 min
[8]
  AUCt: 14900000 ngequiv.hr/g
[9]
  fraction unbound at 1 µM: 0.902
[10]
  fraction unbound at 1 µM: 0.31
[11]
  Drug metabolism: metabolite_detected
[12]
  dose excreted: 1.5%
[13]
  Retention_time: 15.1 min
[14]
  blood plasma ratio at 0.5 h, 20 µM: 4
[15]
  fraction unbound at 1 µM: 0.71
[16]
  blood plasma ratio at 0.5 h, 1 µM: 1
[17]
  AUCt: 160000 ngequiv.hr/g
[18]
  Drug uptake: 69600 ngequiv/g
[19]
  Drug uptake: Not Active
[20]
  fraction unbound at 20 µM: 0.21
[21]
  blood plasma ratio at 0.5 h, 20 µM: 1.2
[22]
  Retention_time: 12.8 min
[23]
  Drug metabolism: metabolite_detected
[24]
  Drug metabolism: metabolite_detected
[25]
  blood plasma ratio at 0.083 h: 12.4
[26]
  Drug uptake: Not Active
[27]
  Stability: Stable
[28]
  fraction unbound at 20 µM: 0.78
[29]
  blood plasma ratio at 0.5 h, 1 µM: 0.82
[30]
  Retention_time: 15.1 min
[31]
  blood plasma ratio at 0.5 h, 1 µM: 0.83
[32]
  blood plasma ratio at 0.5 h, 1 µM: 2.1
[33]
  Drug metabolism: metabolite_detected
[34]
  Drug uptake: 61.8%
[35]
  Stability: Stable
[36]
  dose excreted: 26%
[37]
  Retention_time: 15.4 min
[38]
  half-life: > 168 h
[39]
  Drug metabolism: metabolite_detected
[40]
  dose excreted: 0.06%
[41]
  dose excreted at 168 h: 36.3%
[42]
  fraction unbound at 1 µM: 0.77
[43]
  AUC: 200000 ngequiv.hr/g
[44]
  Ratio: 222
[45]
  Drug metabolism: metabolite_detected
[46]
  fraction unbound at 20 µM: 0.8
[47]
  dose excreted: 0.3%
[48]
  Drug metabolism: metabolite_detected
[49]
  Vd: 0.084 L/kg
[50]
  Retention_time: 12.8 min
[51]
  Drug metabolism: metabolite_detected
[52]
  Vd: 0.926 L/kg
[53]
  Drug metabolism: metabolite_detected
[54]
  blood plasma ratio at 0.5 h, 20 µM: 1.5
[55]
  half-life: 66.1 h
[56]
  Drug metabolism: metabolite_detected
